The source of these data is ChEMBL document CHEMBL6134799, “Auto-RapTAC: A Versatile and Sustainable Platform for the Automated Rapid Synthesis and Evaluation of PROTAC” (J Med Chem, 2025).

What all share (assay type): cell-based
Experiment [1] concerns the target T1, von Hippel-Lindau disease tumor suppressor/Cyclin-dependent kinase 12 (Homo sapiens, UniProt P40337+Q9NYV4). As to the kind of experiment: Auto-RapTAC activity at VHL/CDK12 in human HeLa cells assessed as CDK12 degradation at 500 to 1000 nM incubated for 24 hrs by cytoblot analysis relative to control. The settings on record: dose 500-1000 nM.
Target sequence in this assay (P40337 whole entry, looked up): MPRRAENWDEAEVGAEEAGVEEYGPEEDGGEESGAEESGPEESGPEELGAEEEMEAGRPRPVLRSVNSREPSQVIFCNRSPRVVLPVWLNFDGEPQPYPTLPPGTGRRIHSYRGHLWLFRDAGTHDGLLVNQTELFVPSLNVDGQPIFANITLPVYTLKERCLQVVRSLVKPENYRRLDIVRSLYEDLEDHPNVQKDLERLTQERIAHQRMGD
Target sequence in this assay (Q9NYV4 whole entry, looked up): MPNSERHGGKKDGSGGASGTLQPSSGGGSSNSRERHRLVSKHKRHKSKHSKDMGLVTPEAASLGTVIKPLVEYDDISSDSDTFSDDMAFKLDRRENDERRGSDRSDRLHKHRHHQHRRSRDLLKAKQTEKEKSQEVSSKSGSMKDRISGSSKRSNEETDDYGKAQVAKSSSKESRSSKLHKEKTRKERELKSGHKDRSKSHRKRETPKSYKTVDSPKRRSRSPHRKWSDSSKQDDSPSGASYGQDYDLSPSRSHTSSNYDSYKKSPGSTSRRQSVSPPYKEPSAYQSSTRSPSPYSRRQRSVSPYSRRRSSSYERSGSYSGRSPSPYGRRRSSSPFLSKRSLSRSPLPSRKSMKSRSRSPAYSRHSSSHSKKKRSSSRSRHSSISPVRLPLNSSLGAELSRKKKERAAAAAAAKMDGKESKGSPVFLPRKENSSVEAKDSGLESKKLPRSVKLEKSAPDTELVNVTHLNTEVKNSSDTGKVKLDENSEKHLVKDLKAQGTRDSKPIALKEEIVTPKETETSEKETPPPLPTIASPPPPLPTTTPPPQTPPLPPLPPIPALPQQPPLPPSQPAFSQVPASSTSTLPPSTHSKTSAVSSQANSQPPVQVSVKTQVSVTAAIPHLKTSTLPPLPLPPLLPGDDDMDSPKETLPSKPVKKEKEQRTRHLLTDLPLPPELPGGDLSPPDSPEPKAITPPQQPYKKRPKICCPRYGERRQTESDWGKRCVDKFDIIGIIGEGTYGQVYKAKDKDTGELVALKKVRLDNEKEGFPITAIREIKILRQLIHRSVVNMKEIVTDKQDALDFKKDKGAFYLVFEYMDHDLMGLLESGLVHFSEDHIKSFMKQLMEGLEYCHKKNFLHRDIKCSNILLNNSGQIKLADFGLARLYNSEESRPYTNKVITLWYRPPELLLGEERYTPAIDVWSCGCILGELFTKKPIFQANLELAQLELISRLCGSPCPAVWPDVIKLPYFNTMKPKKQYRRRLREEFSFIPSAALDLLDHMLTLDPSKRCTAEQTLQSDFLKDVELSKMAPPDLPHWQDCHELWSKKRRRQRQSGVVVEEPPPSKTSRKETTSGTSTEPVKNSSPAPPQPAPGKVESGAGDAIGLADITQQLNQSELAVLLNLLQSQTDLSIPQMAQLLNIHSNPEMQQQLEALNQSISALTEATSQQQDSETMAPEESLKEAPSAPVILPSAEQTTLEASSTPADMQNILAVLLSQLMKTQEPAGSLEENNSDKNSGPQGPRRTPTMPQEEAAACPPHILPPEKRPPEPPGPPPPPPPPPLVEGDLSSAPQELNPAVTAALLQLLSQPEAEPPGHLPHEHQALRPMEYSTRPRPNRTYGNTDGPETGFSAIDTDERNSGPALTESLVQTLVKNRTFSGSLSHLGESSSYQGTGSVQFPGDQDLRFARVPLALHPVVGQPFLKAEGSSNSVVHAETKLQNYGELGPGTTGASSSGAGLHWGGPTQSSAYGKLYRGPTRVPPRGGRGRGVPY
For experiment [2], the target named is Protein cereblon/Cyclin-dependent kinase 2 (Homo sapiens, UniProt P24941+Q96SW2). The experiment can be described thus: Auto-RapTAC activity at CRBN/CDK2 in human NCI-H1299 cells assessed as CDK2 degradation incubated for 24 hrs by Western blot analysis. In general terms: In western blotting, separated proteins are transferred to a membrane and probed.
Experiment [3] has as its target T2, Protein cereblon/B-cell lymphoma 6 protein (Homo sapiens, UniProt Q96SW2+P41182). The experiment can be described thus: Auto-RapTAC activity at CRBN/BCL6 in HEK293T cells expressing GFP-BCL6 (unknown origin) assessed as BCL6 degradation at 500 to 1000 nM incubated for 24 hrs by fluorescence based analysis. The settings on record: dose 500-1000 nM.
Experiment [4] deals with T1, von Hippel-Lindau disease tumor suppressor/Cyclin-dependent kinase 12. The experiment can be described thus: Auto-RapTAC activity at VHL/CDK12 in human HeLa cells assessed as CDK12 degradation incubated for 24 hrs by cytoblot analysis.
Experiment [5] relates to HeLa. The experiment can be described thus: Auto-RapTAC activity at MDM2/CDK12 in human HeLa cells assessed as CDK12 degradation at 500 to 1000 nM incubated for 24 hrs by cytoblot analysis relative to control. The following applies: dose 500-1000 nM.
Experiment [6] deals with T2, Protein cereblon/B-cell lymphoma 6 protein. As to the kind of experiment: Auto-RapTAC activity at CRBN/BCL6 in HEK293T cells expressing GFP-BCL6 (unknown origin) assessed as BCL6 degradation incubated for 24 hrs by fluorescence based analysis.
Experiment [7] deals with von Hippel-Lindau disease tumor suppressor/B-cell lymphoma 6 protein (Homo sapiens, UniProt P40337+P41182). The experiment can be described thus: Auto-RapTAC activity at VHL/BCL6 in HEK293T cells expressing GFP-BCL6 (unknown origin) assessed as BCL6 degradation incubated for 24 hrs by fluorescence based analysis.
Experiment [8] relates to HEK293T. The experiment can be described thus: Auto-RapTAC activity at MDM2/BCL6 in HEK293T cells expressing GFP-BCL6 (unknown origin) assessed as BCL6 degradation at 500 to 1000 nM incubated for 24 hrs by fluorescence based analysis. The following applies: Homo sapiens, dose 500-1000 nM.
Experiment [9] relates to HeLa. As to the kind of experiment: (§1) Auto-RapTAC activity at MDM2/CDK12 in human HeLa cells assessed as CDK12 degradation incubated for 24 hrs by cytoblot analysis. The settings on record: dose 500-1000 nM.
Experiment [10] is described as follows: as §1.

Structures are written as SMILES. Active and inactive are the calls of the source. The rule behind the calls is not given here. A value given as a limit tells only on which side of the number the result lay.

T2 sequence (Q96SW2 whole entry, looked up, other chains not shown): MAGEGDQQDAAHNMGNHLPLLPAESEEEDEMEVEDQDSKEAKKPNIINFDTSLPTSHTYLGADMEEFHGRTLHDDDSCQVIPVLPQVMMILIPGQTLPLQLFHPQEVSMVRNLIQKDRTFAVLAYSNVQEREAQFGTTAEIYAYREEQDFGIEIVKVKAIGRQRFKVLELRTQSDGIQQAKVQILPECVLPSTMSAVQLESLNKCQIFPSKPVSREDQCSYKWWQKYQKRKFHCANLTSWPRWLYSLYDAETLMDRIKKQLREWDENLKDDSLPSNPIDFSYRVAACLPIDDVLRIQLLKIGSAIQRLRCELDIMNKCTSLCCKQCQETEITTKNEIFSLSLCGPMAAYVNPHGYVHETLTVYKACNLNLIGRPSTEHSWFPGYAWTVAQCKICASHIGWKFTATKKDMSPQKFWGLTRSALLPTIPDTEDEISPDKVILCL
Sequence of von Hippel-Lindau disease tumor suppressor/B-cell lymphoma 6 protein (P40337 whole entry, looked up, other chains not shown): as the sequence (P40337 whole entry, looked up) above

Regarding `Cc1ncsc1-c1ccc([C@H](C)NC(=O)[C@@H]2C[C@@H](O)CN2C(=O)[C@H](NC(=O)CCCCCCCCCCn2cc(CCCOc3cc4[nH]c(CNc5nc(N6CCOCC6)nc6c5ncn6C(C)C)nc4cc3F)nn2)C(C)(C)C)cc1`, the Activity in [1] is above 60%.
`Cc1ncsc1-c1ccc([C@H](C)NC(=O)[C@@H]2C[C@@H](O)CN2C(=O)[C@H](NC(=O)CCCCCCCCCCn2cc(CCC(=O)N3CCC(NC(=O)c4n[nH]cc4NC(=O)c4c(Cl)cccc4Cl)CC3)nn2)C(C)(C)C)cc1`: in experiment [2], the DC50 is 454 nM.
On to `CNC(=O)COc1cc2cc(Nc3nc(N4CCC(c5cn(CCCCCCCCCOc6ccc7c(c6)C(=O)N(C6CCC(=O)NC6=O)C7=O)nn5)CC4)ncc3Cl)ccc2n(C)c1=O` (centres undefined), for which the result in [3] was Active.
As for `Cc1ncsc1-c1ccc([C@H](C)NC(=O)[C@@H]2C[C@@H](O)CN2C(=O)[C@H](NC(=O)CCCCCCCCCCn2cc(CCC(=O)N3CCC(NC(=O)c4n[nH]cc4NC(=O)c4c(F)cccc4Cl)CC3)nn2)C(C)(C)C)cc1`, in [2], the 50% degradation concentration (DC50) was found to be 362 nM.
For `Cc1ncsc1-c1ccc([C@H](C)NC(=O)[C@@H]2C[C@@H](O)CN2C(=O)[C@H](NC(=O)COCCCCn2cc(CCCOc3cc4[nH]c(CNc5nc(N6CCOCC6)nc6c5ncn6C(C)C)nc4cc3F)nn2)C(C)(C)C)cc1`, the DC50 in [4] turned out to be 2.7 nM. For the same compound, the Activity entry is “Dose-dependent-effect; Hook Effect Was Not Observed” in [4] (dose 500-1000 nM) and above 60% in experiment [1].
As to `CNC(=O)COc1cc2cc(Nc3nc(N4CCC(c5cn(CCCCCCCCCCOc6ccc7c(c6)C(=O)N(C6CCC(=O)NC6=O)C7=O)nn5)CC4)ncc3Cl)ccc2n(C)c1=O` (centres undefined), the result in [3] was Active.
On to `CCOC(=O)c1[nH]c2cc(Cl)ccc2c1C(C(=O)NC(C)(C)C)N(Cc1cc(F)c(F)c(F)c1)C(=O)CCCCCn1cc(CCCOc2cc3[nH]c(CNc4nc(N5CCOCC5)nc5c4ncn5C(C)C)nc3cc2F)nn1` (centres undefined), for which, in [5], the Activity was above 60%.
With `CNC(=O)COc1cc2cc(Nc3nc(N4CCC(c5cn(CCCCCCCOc6ccc7c(c6)C(=O)N(C6CCC(=O)NC6=O)C7=O)nn5)CC4)ncc3Cl)ccc2n(C)c1=O` (centres undefined), the outcome in experiment [3] was Active. The DC50 in experiment [6] amounted to 7 nM. In addition, in [6] (dose 500-1000 nM), the Activity entry was “Dose-dependent-effect; Hook Effect Was Not Observed”.
On to `CNC(=O)COc1cc2cc(Nc3nc(N4CCC(c5cn(CCCCCCCCOc6ccc7c(c6)C(=O)N(C6CCC(=O)NC6=O)C7=O)nn5)CC4)ncc3Cl)ccc2n(C)c1=O` (centres undefined), for which, in experiment [3], the outcome was Active.
As for `CNC(=O)COc1cc2cc(Nc3nc(N4CCC(c5cn(CCCCCCCCCCC(=O)N[C@@H](C(=O)N6C[C@H](O)C[C@H]6C(=O)N[C@@H](C)c6ccc(-c7scnc7C)cc6)C(C)(C)C)nn5)CC4)ncc3Cl)ccc2n(C)c1=O`, the half-maximal degradation concentration (DC50) in [7] worked out at 3.1 nM. Moreover, the Activity entry in experiment [7] (dose 500-1000 nM) is “Dose-dependent-effect; Hook Effect Was Not Observed”. Moreover, the result in experiment [8] was Active.
Consider `CCOC(=O)c1[nH]c2cc(Cl)ccc2c1C(C(=O)NC(C)(C)C)N(Cc1cc(F)c(F)c(F)c1)C(=O)CCCCCCn1cc(CCCOc2cc3[nH]c(CNc4nc(N5CCOCC5)nc5c4ncn5C(C)C)nc3cc2F)nn1` (centres undefined), for which the Activity is above 60% in experiment [5] and “Dose-dependent-effect; Hook Effect Was Not Observed” in experiment [9]. Besides, in experiment [10], the DC50 is 2.4 nM.

One may read the DC50 as the concentration giving 50% degradation.
